According to ChEMBL document CHEMBL1821691, “Cytotoxic C21 and C22 terpenoid-derived metabolites from the sponge Ircinia sp” (J Nat Prod, 2011):

Key:
K562 = experiment: Cytotoxicity against human K562 cells by XTT reagent based automated microculture tetrazolium assay; type: functional, cell-based
DLD-1 = experiment: Cytotoxicity against human DLD1 cells by XTT reagent based automated microculture tetrazolium assay; type: functional, cell-based
HepG2 = experiment: Cytotoxicity against human HepG2 cells by XTT reagent based automated microculture tetrazolium assay; type: functional, cell-based
[1] = Cytotoxicity against human Hep3B cells by XTT reagent based automated microculture tetrazolium assay; type: functional, cell-based, Hep 3B2

What does the source list for `CC(=O)O[C@H](/C=C(\C)CC[C@@H](OC(C)=O)[C@]1(C)CCC(=O)O1)C/C(C)=C/CCc1ccoc1` [IRCIFORMONIN F]?
IC50 (K562): 10.2 µM; IC50 (DLD-1): 0.6 µM; IC50 (HepG2): 1.7 µM; IC50 [1]: 7 µM

For `C/C(=C\[C@@H](O)C/C(C)=C/CCCC(=O)CO)CC[C@@H](O)[C@]1(C)CCC(=O)O1` [IRCINOLIN A], which IC50 (K562) is on record?
The IC50 was greater than 20 µM.

What about the IC50 (DLD-1) of the same compound?
Its IC50 is greater than 20 µM.

And the IC50 (HepG2)?
Its IC50 is greater than 20 µM.

What about the IC50 [1] of the same compound?
The IC50 was greater than 20 µM.

Which IC50 (K562) does the source give for `CC(=O)O[C@H](CC/C(C)=C/[C@@H](O)C/C(C)=C/CCc1ccoc1)[C@]1(C)CCC(=O)O1` here?
The IC50 was 5.4 µM.

And the IC50 (DLD-1)?
Its IC50 is 0.03 µM.

What about the IC50 (HepG2) of the same compound?
The IC50 was 0.5 µM.

And the IC50 [1]?
Its IC50 is 1.1 µM.

For `C/C(=C\[C@@H](O)C/C(C)=C/CCc1ccoc1)CC[C@@H](O)[C@]1(C)CCC(=O)O1` [IRCIFORMONIN B], which IC50 (K562) is on record?
The IC50 was 7.8 µM.

What about the IC50 (DLD-1) of the same compound?
The IC50 was 0.04 µM.

And the IC50 (HepG2)?
Its IC50 is 1 µM.

And the IC50 [1]?
Its IC50 is 6.4 µM.

For `CC(=O)O[C@H](/C=C(\C)CC[C@@H](O)[C@]1(C)CCC(=O)O1)C/C(C)=C/CCc1ccoc1`, which IC50 (K562) is on record?
The IC50 was 9.6 µM.

And the IC50 (DLD-1)?
The IC50 was 0.2 µM.

What about the IC50 (HepG2) of the same compound?
Its IC50 is 2.2 µM.

What about the IC50 [1] of the same compound?
Its IC50 is 10.6 µM.
